Source: patent US7585859B2, “PDE4B inhibitors and uses therefor” (Plexxikon, Inc., priority 2004, dated 2009)
Where two headings read alike, the source gives them in different places.

Experiments:
[1] = molecular target: T1, PDE4B: The catalytic domain of human PDE4B from S152-S528 (Homo sapiens, UniProt Q07343); assay: PDE4 IC50 determination by Scintillation Proximity Assay, PDE4B; format: biochemical
T1 construct: His6 (N); thrombin cleavage site (N); made in house; host or cells: E. coli
How it was run: (§1)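 Enzyme was added to compound and [^3H]cAMP, then incubated 30 min at 30° (PDE4B 80 ng/ml; PDE4D 4 ng/ml). Product [^3H]AMP bound to SPA beads and was counted. IC50 was fitted by non-linear regression against DMSO and roflumilast controls.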

PDE4D = molecular target: T2, PDE4D (Homo sapiens, UniProt Q08499); assay: PDE4 IC50 determination by Scintillation Proximity Assay, PDE4D; format: biochemical
T2 construct: PDE4D: The catalytic domain of human PDE4B from S3 16-V692; His6 (N); thrombin cleavage site (N); made in house; host or cells: E. coli
How it was run: as §1

[2] = molecular target: T3, full-length human PDE4B2 isozyme (Homo sapiens, UniProt Q07343); assay: PDE4 IC50 determination by Scintillation Proximity Assay, PDE4B2; format: biochemical
T3 construct: The full-length human PDE4B2 isozyme; His6 (N); TEV cleavage site (N); made in house; host or cells: baculovirus infected insect cells (unpurified lysate)
How it was run: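 Unpurified His6-TEV-tagged full-length human PDE4B2 from baculovirus-infected insect cell lysate (2.5 μl of 50% glycerol stock/ml) hydrolysed [3H]cAMP in 50 mM Tris pH 7.5, 8.3 mM MgCl, 1.7 mM EGTA, 0.01% BSA for 30 min at 30°. Stopped with SPA beads in 18 mM ZnSO4; [3H]AMP scintillation counted, IC50 by non-linear regression.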

[3] = molecular target: T4, full-length human PDE4D5 isozyme (Homo sapiens, UniProt Q08499); assay: PDE4 IC50 determination by Scintillation Proximity Assay, PDE4D5; format: biochemical
T4 construct: The full-length human PDE4D5 isozyme; His6 (N); TEV cleavage site (N); made in house; host or cells: baculovirus infected insect cells (unpurified lysate)
How it was run: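 Unpurified His6-tagged full-length human PDE4D5 from baculovirus-infected insect cell lysate, 0.083 μl glycerol stock/ml, hydrolysed [3H]cAMP in Tris pH 7.5/MgCl/EGTA buffer, 30 min at 30°. ZnSO4/SPA beads stop; [3H]AMP counted. Controls: DMSO and roflumilast; 11-point duplicate curves, nonlinear-regression IC50.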

[4] = tested on: TNFα levels in serum of LPS-challenged rats; assay: Rat inhibition studies: serum TNFα after iv LPS challenge; format: in vivo; conditions: read-out: % inhibition r TNFα
Method: All studies were done with male rats CD (SD) IGS BR (Crl) (Charles River, France), which were grouped in to 5 animal groups.
At the end of the acclimatization period, the non-fasted rats were weighed, individually identified on the tail with a permanent marker and administered by oral (po) or interperitoneal (ip) route with either vehicle, reference or test compound in a volume of 10 mL/kg adapted to the body weight. The animals were gathered in groups of 5 animals in a polystyrene labeled cage with sawdust covered floors. 2-hours after vehicle, reference or test substance administration, rats received an intravenous (iv) injection of 0.1 mg/kg LPS in a volume of 1 mL/kg of body weight. 2 h after LPS challenge (or as indicated in Tables 3B and 4B), blood samples were collected into tubes without anticoagulant by retro-orbital puncture under gas (isoflurane) anesthesia. Samples were allowed to clot at room temperature for 5 to 10 min then put on ice until there were prepared by centrifugation (6000×g for 3 min at 4° C.) and stored at −20° C. until use. TNFα levels were measured in serum samples in duplicate by ELISA technique according to the manufacturer's procedure (Rat TNFα kit Quantikine M (RTA00, R&D System, France)). Data are reported as percent decrease in observed TNFα levels versus TNFa levels observed for vehicle dosed animal groups.

[5] = Table 1B, Formula I compounds, read-out: IC50 PDE4B
[6] = Table 1B, Formula I compounds, read-out: IC50 PDE4D
[7] = Table 1B, Formula I compounds, read-out: IC50 PDE4B2
[8] = Table 1B, Formula I compounds, read-out: IC50 PDE4D5
[9] = po, 2 h, rat in vivo inhibition assay, 100 mg/kg po, 2 hr challenge delay
[10] = po, 1 h, rat, 100 mg/kg po, 1 hr challenge delay
[11] = 2 h, rat, ip, 2 hr challenge delay
[12] = 2 h, rat, po, 2 hr challenge delay

T4 sequence (Q08499 1-745 isoform Q08499-6): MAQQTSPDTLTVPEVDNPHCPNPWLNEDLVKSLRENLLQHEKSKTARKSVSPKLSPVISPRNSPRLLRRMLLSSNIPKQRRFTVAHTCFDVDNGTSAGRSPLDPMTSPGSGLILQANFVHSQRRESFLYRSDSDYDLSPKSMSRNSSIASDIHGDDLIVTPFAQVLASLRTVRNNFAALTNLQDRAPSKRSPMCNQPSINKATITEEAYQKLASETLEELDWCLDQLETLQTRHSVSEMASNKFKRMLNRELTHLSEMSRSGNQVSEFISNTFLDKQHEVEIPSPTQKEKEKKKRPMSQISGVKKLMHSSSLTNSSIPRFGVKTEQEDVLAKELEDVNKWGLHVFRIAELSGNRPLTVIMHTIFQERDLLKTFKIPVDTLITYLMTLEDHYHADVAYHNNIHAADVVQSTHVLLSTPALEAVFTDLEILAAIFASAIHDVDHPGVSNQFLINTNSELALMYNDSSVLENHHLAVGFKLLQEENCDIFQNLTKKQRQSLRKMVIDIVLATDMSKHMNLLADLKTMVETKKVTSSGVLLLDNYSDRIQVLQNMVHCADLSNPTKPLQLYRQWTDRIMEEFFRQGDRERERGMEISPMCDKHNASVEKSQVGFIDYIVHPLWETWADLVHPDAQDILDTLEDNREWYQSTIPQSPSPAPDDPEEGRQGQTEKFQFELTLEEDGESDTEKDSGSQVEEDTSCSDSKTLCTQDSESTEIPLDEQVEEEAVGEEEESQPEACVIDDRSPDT
T2 sequence (Q08499 380-756): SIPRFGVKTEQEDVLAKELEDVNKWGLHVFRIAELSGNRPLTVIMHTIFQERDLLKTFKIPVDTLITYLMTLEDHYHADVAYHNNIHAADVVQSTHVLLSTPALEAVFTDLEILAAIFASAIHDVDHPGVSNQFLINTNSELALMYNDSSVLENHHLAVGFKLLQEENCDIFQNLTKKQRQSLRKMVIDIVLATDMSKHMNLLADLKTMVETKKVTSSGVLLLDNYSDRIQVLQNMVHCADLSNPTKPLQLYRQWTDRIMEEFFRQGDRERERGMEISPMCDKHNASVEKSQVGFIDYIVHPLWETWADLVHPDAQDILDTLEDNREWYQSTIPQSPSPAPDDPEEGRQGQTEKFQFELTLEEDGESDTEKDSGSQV
T3 sequence (Q07343 1-564 isoform Q07343-2): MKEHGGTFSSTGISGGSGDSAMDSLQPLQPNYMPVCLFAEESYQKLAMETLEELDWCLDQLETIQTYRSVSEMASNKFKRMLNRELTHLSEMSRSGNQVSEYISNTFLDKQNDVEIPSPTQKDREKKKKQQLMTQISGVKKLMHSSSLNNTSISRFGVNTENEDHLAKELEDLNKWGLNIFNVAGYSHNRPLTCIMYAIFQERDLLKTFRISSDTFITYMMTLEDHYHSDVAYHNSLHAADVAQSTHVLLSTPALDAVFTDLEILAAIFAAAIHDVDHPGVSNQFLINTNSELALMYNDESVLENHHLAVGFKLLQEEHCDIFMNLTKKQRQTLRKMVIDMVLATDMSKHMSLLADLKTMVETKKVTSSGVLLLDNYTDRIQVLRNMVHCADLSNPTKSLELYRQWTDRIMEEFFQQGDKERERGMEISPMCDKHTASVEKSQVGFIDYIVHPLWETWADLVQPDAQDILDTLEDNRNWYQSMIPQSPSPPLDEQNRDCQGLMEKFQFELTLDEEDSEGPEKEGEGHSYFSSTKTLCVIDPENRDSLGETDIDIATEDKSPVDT
T1 sequence (Q07343 with tags, fused parts or gaps): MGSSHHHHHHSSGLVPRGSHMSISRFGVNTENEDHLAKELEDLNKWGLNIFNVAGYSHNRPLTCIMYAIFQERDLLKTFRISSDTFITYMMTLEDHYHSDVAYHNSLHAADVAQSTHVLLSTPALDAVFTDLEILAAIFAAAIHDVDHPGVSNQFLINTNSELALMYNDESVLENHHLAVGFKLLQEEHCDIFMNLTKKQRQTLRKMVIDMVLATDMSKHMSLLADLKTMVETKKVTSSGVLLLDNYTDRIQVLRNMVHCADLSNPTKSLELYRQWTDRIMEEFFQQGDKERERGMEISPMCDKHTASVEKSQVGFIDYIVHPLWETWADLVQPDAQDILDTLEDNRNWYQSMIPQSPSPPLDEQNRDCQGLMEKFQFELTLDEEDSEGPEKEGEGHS

SMILES	IC50 [1, 5] [µM]	IC50 (PDE4D; [6]) [µM]	IC50 [2, 7] [µM]	IC50 [3, 8] [µM]	inhibition in vivo at 100 mg/kg [4, 9] [%]	also measured
Cc1ccc(C(=O)c2sc(Nc3ccccc3)c(C#N)c2N)cc1 [Compound 1-29, 4-Amino-5-(4-methyl-benzoyl)-2-phenylamino-thiophene-3-carbonitrile]	< 10	< 10	< 10	< 10		inhibition in vivo at 100 mg/kg ([4]; ip, 1 h, rat, 100 mg/kg, ip, 1 hr challenge delay): > 20%
COc1ccccc1Nc1sc(C(=O)c2ccccc2)c(N)c1C#N [Compound 1-30, 4-Amino-5-benzoyl-2-(2-methoxy-phenylamino)-thiophene-3-carbonitrile]	< 10	< 10	< 10	< 10	> 20	
COc1ccc(Nc2sc(C(=O)c3ccccc3)c(N)c2C#N)cc1 [Compound 1-32, 4-Amino-5-benzoyl-2-(4-methoxy-phenylamino)-thiophene-3-carbonitrile]	< 10	< 10	< 10	< 10	< 20	
COc1cccc(C(=O)c2sc(Nc3ccccc3)c(C#N)c2N)c1 [Compound 1-33, 4-Amino-5-(3-methoxy-benzoyl)-2-phenylamino-thiophene-3-carbonitrile]	< 10	< 10	< 10	< 10	> 20	
N#Cc1c(Nc2ccccc2)sc(C(=O)c2ccc(-c3ccccc3)cc2)c1N [Compound 1-34, 4-Amino-5-(biphenyl-4-carbonyl)-2-phenylamino-thiophene-3-carbontrile]	< 10	< 10	< 10	< 10	> 20	
N#Cc1c(Nc2ccccc2)sc(C(=O)c2ccc3ccccc3c2)c1N [Compound 1-35, 4-Amino-5-(naphthalene-2-carbonyl)-2-phenylamino-thiophene-3-carbonitrile]	< 10	< 10	< 10	< 10	< 20	
COc1ccc(C(=O)c2sc(Nc3ccc(Cl)cc3)c(C#N)c2N)cc1 [Compound 1-36, 4-Amino-2-(4-chloro-phenylamino)-5-(4-methoxy-benzoyl)-thiophene-3-carbonitrile]	< 10	< 10	< 10	< 10		inhibition in vivo at 100 mg/kg [4, 10]: < 20%
COc1ccc(C(=O)c2sc(Nc3ccc(F)cc3)c(C#N)c2N)cc1 [Compound 1-37, 4-Amino-2-(4-fluoro-phenylamino)-5-(4-methoxy-benzoyl)-thiophene-3-carbonitrile]	< 10	< 10	< 10	< 10		inhibition in vivo at 100 mg/kg [4, 10]: < 20%
N#Cc1c(NC2CCCC2)sc(C(=O)c2cc(-c3ccccc3)no2)c1N [Compound 1-143, 4-Amino-2-cyclopentylamino-5-(3-phenyl-isoxazole-5-carbonyl)-thiophene-3-carbonitrile]	< 10	< 10	< 10	< 10		inhibition in vivo at 50 mg [4, 11]: > 20%; inhibition in vivo at 80 mg ([4]; 2 h, rat, 80 mg, po, 2 hr challenge delay): < 20%; inhibition in vivo at 100 mg/kg ([4]; ip, 2 h, rat, 100 mg/kg, ip, 2 hr challenge delay): > 20%
N#Cc1c(Nc2ccc(Oc3ccccc3)cc2)sc(C(=O)c2ccccc2Cl)c1N [Compound 1-161, 4-Amino-5-(2-chloro-benzoyl)-2-(4-phenoxy-phenylamino)-thiophene-3-carbonitrile]	< 10	> 10	< 10	< 10		inhibition in vivo at 90 mg [4, 11]: > 20%; inhibition in vivo at 90 mg [4, 12]: < 20%
CSc1cccc(Nc2sc(C(=O)c3ccccc3)c(N)c2C#N)c1 [Compound 1-169, 4-Amino-5-benzoyl-2-(3-methylsulfanyl-phenylamino)-thiophene-3-carbonitrile]	< 10	< 10	< 10	< 10		inhibition in vivo at 70 mg ([4]; 2 h, rat, 70 mg, po, 2 hr challenge delay): > 20%
N#Cc1c(NC2CCCC2)sc(C(=O)c2ccccc2)c1N [Compound 1-171, 4-Amino-5-benzoyl-2-cyclopentylamino-thiophene-3-carbonitrile]	< 10	< 10	< 10	< 10	< 20	
N#Cc1c(NC2CCCC2)sc(C(=O)c2cc(-c3ccc(Cl)cc3)no2)c1N [Compound 1-173, 4-Amino-5-[3-(4-chloro-phenyl)-isoxazole-5-carbonyl]-2-cyclopentylamino-thiophene-3-carbonitrile]	< 10	> 10	< 10	> 10	< 20	
CSc1cccc(Nc2sc(C(=O)c3cc(-c4ccccc4)no3)c(N)c2C#N)c1 [Compound 1-181, 4-Amino-2-(3-methylsulfanyl-phenylamino)-5-(3-phenyl-isoxazole-5-carbonyl)-thiophene-3-carbonitrile]	< 10	< 10	< 10	< 10	< 20	
N#Cc1c(NC2CC2)sc(C(=O)c2cc(-c3ccccc3)no2)c1N [Compound 1-186, 4-Amino-2-cyclopropylamino-5-(3-phenyl-isoxazole-5-carbonyl)-thiophene-3-carbonitrile]	< 10	> 10	< 10	< 10	< 20	
N#Cc1c(NC2CCCC2)sc(C(=O)c2cc(-c3ccc(F)cc3)no2)c1N [Compound 1-221, 4-Amino-2-cyclopentylamino-5-[3-(4-fluoro-phenyl)-isoxazole-5-carbonyl]-thiophene-3-carbonitrile]	< 10	> 10	< 10	> 10		inhibition in vivo at 50 mg [4, 12]: < 20%
Nc1nc(NC2CCCC2)sc1C(=O)c1cc(-c2ccccc2)no1 [Compound 2-9, (4-Amino-2-cyclopentylamino-thiazol-5-yl)-(3-phenyl-isoxazol-5-yl)-methanone]						IC50 ([1]; first part of Table 2B (2-1 to 2-22), read-out: IC 50 vs. indicated assay PDE4B): < 10 µM; IC50 (PDE4D; first part of Table 2B (2-1 to 2-22), read-out: IC 50 vs. indicated assay PDE4D): < 10 µM; IC50 ([2]; first part of Table 2B (2-1 to 2-22), read-out: IC 50 vs. indicated assay PDE4B2): < 10 µM; IC50 ([3]; first part of Table 2B (2-1 to 2-22), read-out: IC 50 vs. indicated assay PDE4D5): < 10 µM; inhibition in vivo at 100 mg/kg ([4]; po, 2 h, rat in vivo, 100 mg/kg po, 2 hr challenge delay, percent decrease in TNFα versus vehicle): > 20%
